Results as given in paper PMC11489250, “Optimized methods for measuring competitive binding of chemical substances to thyroid hormone distributor proteins transthyretin and thyroxine binding globulin” (Archives of Toxicology, 2024).
Read-outs that look alike come from different tables or passages of the source.

Tests used:
TBG [1] = target: TBG; parameters: method as in Ren et al. [2016]; conditions: ref Ren et al. [2016], cited from earlier work
TBG [2] = target: TBG; parameters: method as in Ren and Guo [2012]; conditions: ref Ren and Guo [2012]; read-out: TBG literature Ki; cited from earlier work
[3] = target: T1, thyroxine-binding globulin (TBG) (Homo sapiens, UniProt P05543); experiment: Competitive TBG-binding assay with FITC-T4 (fluorescence polarization readout); conditions: for Ki / IC50 / IC20: RT
T1 construct: purchased Bio-rad Laboratories, Inc. (Veenendaal, The Netherlands)
T1 sequence (P05543 21-415): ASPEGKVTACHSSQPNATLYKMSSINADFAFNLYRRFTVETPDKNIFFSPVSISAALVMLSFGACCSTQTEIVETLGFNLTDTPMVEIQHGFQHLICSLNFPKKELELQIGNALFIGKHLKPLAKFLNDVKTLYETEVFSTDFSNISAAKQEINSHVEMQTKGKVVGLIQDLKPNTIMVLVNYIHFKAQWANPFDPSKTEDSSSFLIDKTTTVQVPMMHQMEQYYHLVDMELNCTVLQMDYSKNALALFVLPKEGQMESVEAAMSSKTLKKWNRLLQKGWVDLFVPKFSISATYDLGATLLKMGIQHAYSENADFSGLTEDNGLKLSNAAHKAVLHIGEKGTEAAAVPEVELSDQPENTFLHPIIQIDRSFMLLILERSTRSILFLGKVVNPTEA
Method: Prepared plates were first shaken for 5 min and then incubated for 15 min at room temperature before being analysed by the microplate reader at FP mode (CLARIOstar Plus, BMG LABTECH).
Accordingly, dilution series of all compounds were prepared in DMSO. First, 24 µL Tris–HCl buffer was pipetted to the wells, followed by 1 µL of the compound stock solution. […] Solvent (DMSO) concentrations in all conditions were 1%. The plates were shaken for 5 min on a plate shaker, followed by an incubation for 15 min at room temperature.
The adjusted polarization was set to a reference value of 35 mP. The adjustment gain values ranged from 1900 to 2200. The plate layout of TBG-binding assay is provided in Supplementary Information file (Section 4).
For the competitive TBG-binding experiments, concentration–response curves were fitted:2 r=rmin+rmax-rmin/1+IC50/X^HillSlope with rmin and rmax being the minimum and maximum anisotropy values, respectively. X is the concentration of added competitor. Equations that were used for the calculation of the ICX and Ki values in the TTR-binding assays (Supplementary Information, Section 3) were also used to determine the ICX and Ki values in TBG-binding assays without any changes, respectively. The single Kd, IC20, IC50 and Ki were determined based on replicates (n) in each experiment, and then the average and confidence intervals were determined based on the Kd, IC20, IC50 and Ki values from sperate experiments (N).
Alternatively, another approach to determine ICX, Kd and Ki values based on a theoretical model of ligand–protein binding biochemistry was taken as described in detail in the Supplementary Information file (Section 5). For this approach, R was used to fit the model to the data. The results obtained from the two approaches were compared in Section 3.4.
S5.2 Ki and IC50 estimation

TBG [4] = system: TBG; parameters: method as in Marchesini et al. [2008]; conditions: T4-coated chips and TBG; ref Marchesini et al. [2008]; read-out: TBG IC50 (SPR biosensor); cited from earlier work
Recombinant TTR = target: Recombinant TTR; parameters: method as in Marchesini et al. [2006]; conditions: T4 100 nM, recombinant TTR 18.2 nM, 25 °C, 10 min, ref Marchesini et al. [2006], cited from earlier work
Human TTR [5] = target: T2, Human TTR (Homo sapiens, UniProt P02766); experiment: Optimized competitive TTR-binding assay with FITC-T4 (fluorescence intensity readout); conditions: for IC20: read-out: TTR IC20
T2 construct: Transthyretin (prealbumin, TTR) >95% from human plasma; purchased Sigma Aldrich (Zwijndrecht, The Netherlands); host or cells: human plasma
Method: All TTR-binding experiments were performed in black 96-well polystyrene nonbinding plates. Experimental wells and background wells were prepared in triplicate per plate. […] Fluorescence intensity (FI) was measured at λex = 485 ± 20 nm and λem = 528 ± 20 nm (CLARIOstar Plus microplate reader, BMG LABTECH).
To test the effect of the change in temperature and incubation time, a saturation experiment (N = 3, n = 3) was performed in Tris–HCl buffer (0.1 M Tris (Thermo Scientific, Rockford, USA), 0.1 M NaCl (Merck KGaA, Darmstadt, Germany), 1 mM EDTA (VWR International, B.V. Amsterdam, The Netherlands); pH 8.0). […] Two 96-well plates were prepared at the same time. After shaking for 5 min on a plate shaker, one prepared plate was incubated on ice (at 4 °C) and another plate was incubated at room temperature (22 °C). For both plates the fluorescence was measured at different time points: 5 min, 15 min, 60 min and 120 min.
First, 48 µL Tris–HCl buffer (pH 8.0) was pipetted to the wells, followed by 2 µL of the compound (in DMSO). […] Final solvent (DMSO) concentrations in all conditions amounted to 1%. All plates were shaken for 5 min on a plate shaker, followed by an incubation for 15 min at room temperature. The standard operation procedure (SOP) is provided in Supplementary Information file (Section 3).
Calculations of the ICX, Kd and Ki values of TTR-binding assays are described in the Supplementary Information file (Section 3).
3.7.5 The competitive TTR binding screening assay
3.7.8 Processing data to determine IC50 and calculate Ki value

TBG [6] = target: TBG; parameters: method as in Cao et al. [2010]; conditions: ref Cao et al. [2010]; read-out: TBG literature Ki; cited from earlier work
TBG [7] = target: TBG; parameters: method as in Qi et al. [2011]; conditions: ref Qi et al. [2011]; read-out: TBG literature Ki; cited from earlier work
[8] = target: T1, thyroxine-binding globulin (TBG); experiment: Competitive TBG-binding assay with FITC-T4 (fluorescence polarization readout); conditions: 37 °C, 15 min, preliminary temperature experiment (N = 2)
TBG [9] = conditions: highest tested concentration 100 µM with 100 nM TBG and 50 nM FITC-T4; ref Ren et al. [2020]; cited from earlier work
TTR = conditions: ref Ren et al. [2020]; cited from earlier work
Human TTR [10] = target: T2, Human TTR; conditions: FITC-T4 110 nM, human TTR 30 nM, 4 °C, 2 h; ref Hamers et al. [2020]; read-out: TTR literature Ki; cited from earlier work
[11] = 5 nM FITC-T4, 10 nM TBG, 15 min, derived from IC20, descriptive model (Graphpad), average [95% CI], read-out: TBG Ki
[12] = 5 nM FITC-T4, 10 nM TBG, 15 min, descriptive model (Graphpad), average [95% CI]
[13] = 5 nM FITC-T4, 10 nM TBG, 15 min, descriptive model (Graphpad), average [95% CI], read-out: TBG IC20
[14] = 5 nM FITC-T4, 10 nM TBG, theoretical model in R, average [95% CI], read-out: TBG IC20, theoretical model
[15] = 5 nM FITC-T4, 10 nM TBG, theoretical model in R, average [95% CI], read-out: TBG Ki values, theoretical model
[16] = 110 nM FITC-T4, 30 nM TTR, RT, 15 min, average [95% CI]
[17] = T4EQi = highest human blood concentration x T4-REPi

Compound: O=C(O)C(F)(F)C(F)(F)C(F)(F)C(F)(F)C(F)(F)C(F)(F)C(F)(F)C(F)(F)C(F)(F)C(F)(F)C(F)(F)C(F)(F)C(F)(F)F [PFTdA, perfluorotetradecanoic acid]
- Ki (TBG [1]; read-out: TBG Ki): 26600 nM

Compound: N[C@@H](Cc1cc(I)c(Oc2cc(I)c(O)c(I)c2)c(I)c1)C(=O)O [T4, 3,3′,5,5′-tetraiodothyronine]
- Ki (TBG [2]): 17 nM
- Ki [3, 11]: 2.5 nM
- IC50 [3, 12]: 14.9 nM
- IC20 [3, 13]: 9.2 nM
- IC20 [3, 14]: 5.9 nM
- Ki [3, 15]: 0.8 nM
- Ki ([3]; 15 min, preliminary temperature experiment (N = 2), read-out: TBG Ki): 2.9 nM
- IC50 (TBG [4]): 17.2 nM
- Kd (Recombinant TTR; read-out: Determined Kd value of ligand with TTR): 9.2 ± 1.2 nM
- Ki (Recombinant TTR; read-out: TTR literature Ki): 13.7 ± 1.3 nM
- IC20 (Human TTR [5]; [16]): 25 nM
- Ki (TBG [6]): 0.6 nM
- Ki (TBG [7]): 2.2 nM
- Ki (TBG [1]; N.D means not detected, read-out: TBG literature Ki): 7 nM
- Ki [8]: 2.6 nM

Compound: CC(C)(c1cc(Br)c(O)c(Br)c1)c1cc(Br)c(O)c(Br)c1 [TBBPA]
- binding to TBG (in words) (TBG [9]): not to TBG
- Ki [3, 11]: 3760 nM
- IC50 [3, 12]: 68100 nM
- IC20 [3, 13]: 7300 nM
- IC20 [3, 14]: 6420 nM
- Ki [3, 15]: 3310 nM
- T4EQ concentration (TBG binding) [3, 17]: 2 pM
- Contribution to T4EQ concentration (TBG binding) ([3]; mixture of highest human blood concentrations of TBBPA, triclosan and BPA): 0.1%
- binding to TTR (in words) (TTR): binding of TBBPA to TTR
- IC20 (Human TTR [5]; [16]): 12 nM
- IC50 (Human TTR [5]; 110 nM FITC-T4, 30 nM TTR, RT, 15 min, average [95% CI], read-out: TTR IC50): 22 nM
- Ki (Human TTR [5]; 110 nM FITC-T4, 30 nM TTR, RT, 15 min, derived from IC20, average [95% CI], read-out: TTR Ki): 12 nM
- T4EQ concentration (TTR binding) (Human TTR [5]; [17]): 3.73 nM
- Contribution to T4EQ concentration (TTR binding) (Human TTR [5]; mixture of highest human blood concentrations of five model compounds): 19.5%
- Ki (Human TTR [10]): 17 nM

Compound: Oc1cc(Cl)ccc1Oc1ccc(Cl)cc1Cl [Triclosan, triclosan]
- IC20 [3, 13]: 284 nM
- IC20 [3, 14]: 293 nM
